Where two headings read alike, the source gives them in different places.
Legend:
[1] = system: NCI H-929 multiple myeloma cell line; assay: NCI H-929 sub cutaneous tumour study with varied BTZ dose, TGI and TTE (Example 8); assay type: in vivo, mice; details: day 18
Procedure: Cilengitide or vehicle was supplied as daily intra-peritoneal injection (45 mg/kg). […] After this point, dosing was continued in groups receiving 0.2 mg/kg and 0.5 mg/kg BTZ t cilengitide until day 31 to allow comparative tumour growth delay (i.e. difference in time to endpoint (TTE). […] TTE was calculated as TTE=[log(endpoint volume)-b]/m where TTE is expressed in days, endpoint volume is expressed in mm^3, b is the intercept, and m is the slope of the line obtained by linear regression of a log-transformed tumour growth data set. TTE values were plotted in Kaplan-Meier diagrams (FIGS. 9 and 10).

20S proteasome = 20S proteasome (Homo sapiens, UniProt P20618+P28074); details: cited from earlier work
[2] = system: T47D breast cancer cell line; assay: Sulforhodamine B viability assay and isobologram / combination index in T47D cells; assay type: cell-based; details: for CI: single agent
Procedure: For assessment of combined BTZ and cilengitide toxicity, T47D cells were seeded at a density of 7500 cells/cm^2 in 96-well cell culture plates and incubated for 24 hours. Cilengitide was diluted to 20 μM in complete DMEM, then 3 serial tenfold dilutions of this were performed in complete DMEM (2 μM, 200 nM and 20 nM). Complete DMEM containing no cilengitide was provided for negative controls.
These dilutions (or DMSO for wells containing no BTZ) were added to aliquots of complete DMEM containing 0-20 μM cilengitide for a 1/150 dilution. Aliquots (0.1 mL) of each mixture were added to wells already containing 0.1 mL medium (in duplicate), resulting in a matrix of cilengitide (10 nM-10 μM) and/or BTZ (1 nM-10 μM) or neither agent (diluent only).
OD570nm readings were divided by those resulting from negative control (diluent only) wells and expressed as a percentage. Three independent replicates of this experiment were carried out.
The isoboles were obtained similarly by extrapolation of points representing 50% reduction in viability from line graphs of % viability versus concentration of one agent at variable concentration with the other agent supplied at a fixed concentration.
The position of the points on this graph (FIG. 6) indicates whether a combined effect is synergistic (falling below/left of the line) antagonistic (falling above/right of this line) or additive (on or close to this line).
CA,x and CB,x are the concentrations of drug A and drug B used in combination to achieve x % drug effect. ICx,A and ICx,B are the concentrations for single agents to achieve the same effect.

[3] = Sprague-Dawley rats; AUC intravenous versus intra-gastric administration; cited from earlier work
[4] = system: CWR22 human prostate cancer xenografts; details: cited from earlier work
[5] = CD-1 mice; 4 mg/kg PO versus 0.8 mg/kg intravenously; cited from earlier work
[6] = system: WSU-DLCL2 lymphoma xenograft; details: at MTD; cited from earlier work
[7] = system: NCI H-929 human multiple myeloma cells; assay: NCI-H929 sub-cutaneous xenograft mouse tumor model, 'high' bortezomib dose (Example 7); assay type: in vivo, SCID mouse; details: for Complete response / No response / Partial response: mice of N = 10; for Complete response / No response / Partial response / Total RR %: bortezomib 1 mg/kg IV biweekly, cilengitide 45 mg/kg IP QD; for Total RR %: sum of PR+CR
Excerpt: This was then continued until Day 21.
Partial response (PR) is defined as the first measurement of the tumor volume being 50% or less of its Day 1 volume for three consecutive measurements during the course of the study, and equal to or greater than 13.5 mm^3 for one or more of these three measurements. In a complete response (CR), the tumor volume was less than 13.5 mm^3 for three consecutive measurements during the course of the study. Total response rate (RR) is the sum of PR+CR. Treatment began on day 1 and was stopped on Day 21.

[8] = Cilengitide oral bioavailability, plasma level by LC-MS after intra-gastric gavage; assay type: in vivo; details: mice, 100 mg/kg intra-gastric gavage
Procedure: 3 mice were dosed with cilengitide at 100 mg/kg by intra-gastric gavage. Bleeds (0.1 mL) were taken before dosing and 5 and 15 minutes post dosing. Terminal bleeds (orbital vein) were taken at 60 minutes post-dose. All bleeds were transferred into Li-heparin tubes and plasma prepared by centrifugation. Aliquots of plasma (pooled per timepoint) were processed for analysis by addition of 3 volumes of acetonitrile, centrifuged for 1 minute at 13,000 rpm, then the supernatant recovered.
Samples were analysed by LC-MS alongside standards containing known amounts of cilengitide (1 ng/mL-1000 ng/mL). Cilengitide was undetectable in pre-dose, 5 minute and 15 minute time points. At the 60 minute time point: cilengitide levels were estimated to be 94.2 ng/mL.

PHTX22L xenografts = details: MTD level treatment; cited from earlier work
DP54-Luc model = details: in vivo; cited from earlier work
[9] = at maximum tolerated dose (MTD)
[10] = By Day 42, treatment stopped on Day 21, N = 10

CC(C)C[C@H](NC(=O)[C@H](Cc1ccccc1)NC(=O)c1cnccn1)B(O)O [Bortezomib]
Tumour growth inhibition (TGI) ([1]; 0.5 mg/kg BTZ and below, without cilengitide): virtually ineffective | Tumour growth inhibition (TGI) ([1]; BTZ doses of 0.7 mg/kg and greater, biweekly intravenous): almost complete TGI | proteasome dissociation half-life (20S proteasome): approximately 110 minutes | CI [2]: 1.00 | calculated bioavailability [3]: 46% | anti-tumoral activity [4, 9]: effective anti-tumoral activity | estimated oral bioavailability [5]: approximately 11% | anti-tumoral activity [6]: ineffective | mice showing a complete response ([7]; By Day 8, bortezomib 1 mg/kg): 10% | animals remained 'cured' (tumours did not regrow) ([7]; By Day 42, treatment stopped on Day 21): 60% | animals that reached end point (tumour volume>2000 mm^3) [7, 10]: 1 | animals that relapsed [7, 10]: 3 animals | Complete response ([7]; Day 1): 0 | No response ([7]; Day 1): 10 | Partial response ([7]; Day 1): 0 | Total RR % ([7]; Day 1, N = 10): 0% | Complete response ([7]; Day 4): 0 | No response ([7]; Day 4): 7 | Partial response ([7]; Day 4): 3 | Total RR % ([7]; Day 4, N = 10): 30% | Total RR % ([7]; Day 4, N = 10, listed as bortezomib): 30% | Complete response ([7]; Day 8): 1 | No response ([7]; Day 8): 3 | Partial response ([7]; Day 8): 6 | Total RR % ([7]; Day 8, N = 10): 70% | Complete response ([7]; Day 12): 4 | No response ([7]; Day 12): 2 | Partial response ([7]; Day 12): 4 | Complete response ([7]; Day 15): 4 | No response ([7]; Day 15): 2 | Partial response ([7]; Day 15): 4 | Complete response ([7]; Day 18): 4 | No response ([7]; Day 18): 1 | Partial response ([7]; Day 18): 5 | Total RR % ([7]; Day 18, N = 10): 90% | Complete response ([7]; Day 21): 5 | No response ([7]; Day 21): 1 | Partial response ([7]; Day 21): 4 | Total RR % ([7]; Day 21, N = 10): 90% | Total RR % ([7]; Day 21, N = 10, listed as bortezomib): 90% | mice that failed to respond at all ([7]; last treatment day (Day 21), bortezomib 1 mg/kg): 10%

CC(C)[C@H]1C(=O)N[C@@H](CCCN=C(N)N)C(=O)NCC(=O)N[C@@H](CC(=O)O)C(=O)N[C@H](Cc2ccccc2)C(=O)N1C [Cilengitide]
IC50 ([2]; read-out: Cilengitide (M), concentration resulting in 50% reduction in viability as single agent (IC50), bortezomib 0): 6.2e-06 M | CI [2]: 1.00 | cilengitide levels in plasma ([8]; 5 minute time point): undetectable | cilengitide levels in plasma ([8]; 15 minute time point): undetectable | level at 1 h ([8]; mouse, plasma, po, 60 minute time point, read-out: cilengitide levels in plasma): 94.2 ng/mL | Complete response ([7]; Day 1): 0 | No response ([7]; Day 1): 10 | Partial response ([7]; Day 1): 0 | Total RR % ([7]; Day 1, N = 10): 0% | Complete response ([7]; Day 4): 0 | No response ([7]; Day 4): 10 | Partial response ([7]; Day 4): 0 | Total RR % ([7]; Day 4, N = 10): 0% | Complete response ([7]; Day 8): 0 | No response ([7]; Day 8): 10 | Partial response ([7]; Day 8): 0 | Total RR % ([7]; Day 8, N = 10): 0% | Complete response ([7]; Day 12): 0 | No response ([7]; Day 12): 10 | Partial response ([7]; Day 12): 0 | Total RR % ([7]; Day 12, N = 10): 0% | Complete response ([7]; Day 15): 0 | No response ([7]; Day 15): 10 | Partial response ([7]; Day 15): 0 | Total RR % ([7]; Day 15, N = 10): 0% | Complete response ([7]; Day 18): 0 | No response ([7]; Day 18): 10 | Partial response ([7]; Day 18): 0 | Total RR % ([7]; Day 18, N = 10): 0% | Complete response ([7]; Day 21): 0 | No response ([7]; Day 21): 10 | Partial response ([7]; Day 21): 0 | Total RR % ([7]; Day 21, N = 10): 0%

CC(C)C[C@H](NC(=O)CNC(=O)c1cc(Cl)ccc1Cl)B(O)O [Ixazomib, [(1R)-1-[[2-[(2,5-dichlorobenzoyl)amino]acetyl]amino]-3-methyl-butyl]boronic acid]
proteasome dissociation half-life (20S proteasome): approximately 18 minutes | release from proteasome, fold faster than bortezomib (20S proteasome): approximately 6 fold | anti-tumoral activity ([4]; at half the MTD): more effective than bortezomib | anti-tumoral activity [4, 9]: effective anti-tumoral activity | anti-tumoral effect (PHTX22L xenografts): only ixazomib was found to exhibit an anti-tumoral effect | anti-tumoral activity [6]: significant anti-tumoral activity | alleviation of osteolytic bone disease (DP54-Luc model): effective
